Measurements: patent US20220106301A1, “ACETAMIDO-PHENYLBENZAMIDE DERIVATIVES AND METHODS OF USING THE SAME” (Athenex, Inc., priority 2020, published 2022)

Molecular target: CYP3A4 (Homo sapiens, UniProt P08684)
Test: Determination of CYP3A4 inhibitory activity (human liver microsome, Luciferin-IPA)
Conditions: CYP3A4 IC50 (nM), 37° C. 11 minutes
In short: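 Final compound concentrations 37, 111, 333, 1000 and 3000 nM; reaction at 37° C for 11 min, then luciferin detection reagent 5 min at room temperature with luminescence read-out. IC50 from nonlinear regression of dose-response.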

Sequence of CYP3A4 (P08684 whole entry): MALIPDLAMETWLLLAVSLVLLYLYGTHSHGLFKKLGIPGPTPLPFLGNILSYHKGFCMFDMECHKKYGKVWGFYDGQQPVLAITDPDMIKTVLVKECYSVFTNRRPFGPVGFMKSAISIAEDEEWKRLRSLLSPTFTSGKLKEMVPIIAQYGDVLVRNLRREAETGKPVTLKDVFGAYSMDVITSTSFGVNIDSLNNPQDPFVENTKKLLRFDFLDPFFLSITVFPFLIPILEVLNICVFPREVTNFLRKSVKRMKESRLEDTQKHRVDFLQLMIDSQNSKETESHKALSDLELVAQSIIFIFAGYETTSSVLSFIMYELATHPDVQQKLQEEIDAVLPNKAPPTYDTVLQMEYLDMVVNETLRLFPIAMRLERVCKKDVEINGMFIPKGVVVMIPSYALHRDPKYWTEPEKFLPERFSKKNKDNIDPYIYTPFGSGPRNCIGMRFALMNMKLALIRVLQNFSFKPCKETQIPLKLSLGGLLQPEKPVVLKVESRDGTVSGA

| Structure (SMILES) | IC50 [nM] |
| --- | --- |
| COC(=O)c1ccc(CN(CCc2ccc(NC(=O)c3cc(OC)c(OC)cc3NC(=O)c3cc(=O)c4ccccc4o3)cc2)Cc2cccc(-n3ccnc3)c2)cc1 [Compound 218] | 100 to 250 |
| COc1ccc(CN(CCc2ccc(NC(=O)c3cc(OC)c(OC)cc3NC(=O)c3cc(=O)c4ccccc4o3)cc2)Cc2cccc(-n3ccnc3)c2)cc1C#N [Compound 219] | 100 to 250 |
| COc1cc(NC(=O)c2cc(=O)c3ccccc3o2)c(C(=O)Nc2ccc(CCN(Cc3cccnc3)Cc3cnc(-c4ccccc4F)nc3)cc2)cc1OC [Compound 229] | 250 to 500 |
| COc1cc(NC(=O)c2cc(=O)c3ccccc3o2)c(C(=O)Nc2ccc(CCN(Cc3cccc(OC[C@@H]4CO[C@@](Cn5ccnc5)(c5ccc(Cl)cc5Cl)O4)c3)Cc3ccc4c(cnn4C)c3)cc2)cc1OC [Compound 242] | 250 to 500 |
| COc1cc(NC(=O)c2cc(=O)c3ccccc3o2)c(C(=O)Nc2ccc(CCN(Cc3ccc(-n4ccnc4C)cc3)Cc3cccc(-n4ccnc4)c3)cc2)cc1OC [Compound 243] | > 1000 |
| COc1cc(NC(=O)c2cc(=O)c3ccccc3o2)c(C(=O)Nc2ccc(CCN(Cc3cccc(-n4ccnc4)c3)Cc3cccc(-n4ccnc4C)c3)cc2)cc1OC [Compound 245] | 250 to 500 |
| COc1cc(NC(=O)c2cc(=O)c3ccccc3o2)c(C(=O)Nc2ccc(CCN(Cc3cccnc3)Cc3ccc(C)c4ncccc34)cc2)cc1OC [Compound 250] | 100 to 250 |
| Cn1ncc2cc(CNCCc3ccc(NC(=O)c4ccc(C(=O)O)cc4NC(=O)c4cc(=O)c5ccccc5o4)cc3)ccc21 [Compound 256] | > 1000 |
| COC(=O)c1ccc(C(=O)Nc2ccc(CCN(Cc3ccc4c(cnn4C)c3)Cc3ccc4c(cnn4C)c3)cc2)c(NC(=O)c2cc(=O)c3ccccc3o2)c1 [Compound 257] | > 1000 |
| COC(=O)c1ccc(C(=O)Nc2ccc(CCN(Cc3cncc(OC)c3)Cc3cncc(OC)c3)cc2)c(NC(=O)c2cc(=O)c3ccccc3o2)c1 [Compound 258] | < 100 |
| COC(=O)c1ccc(C(=O)Nc2ccc(CCN(Cc3cccc(-n4ccnc4)c3)Cc3cccc(-n4ccnc4)c3)cc2)c(NC(=O)c2cc(=O)c3ccccc3o2)c1 [Compound 260] | < 100 |
| COc1cc2c(cc1OC)CN(CCc1ccc(NC(=O)c3ccc(C(=O)O)cc3NC(=O)c3cc(=O)c4ccccc4o3)cc1)CC2 [Compound 261] | > 1000 |
| COc1cc2c(cc1OC)CN(CCc1ccc(NC(=O)c3ccc(C(=O)OCCCn4ccnc4)cc3NC(=O)c3cc(=O)c4ccccc4o3)cc1)CC2 [Compound 262] | < 100 |
| COC(=O)c1ccc(C(=O)Nc2ccc(CCN(Cc3ccc(OC)c(OC)c3)Cc3ccc(OC)c(OC)c3)cc2)c(NC(=O)c2cc(=O)c3ccccc3o2)c1 [Compound 263] | > 1000 |
| COc1ccc(CN(CCc2ccc(NC(=O)c3ccc(C(=O)O)cc3NC(=O)c3cc(=O)c4ccccc4o3)cc2)Cc2ccc(OC)c(OC)c2)cc1OC [Compound 264] | > 1000 |
| COc1ccc(CN(CCc2ccc(NC(=O)c3ccc(C(=O)OCc4cccnc4)cc3NC(=O)c3cc(=O)c4ccccc4o3)cc2)Cc2ccc(OC)c(OC)c2)cc1OC [Compound 265] | > 1000 |
| Cn1ncc2cc(CN(CCc3ccc(NC(=O)c4ccc(C(=O)OCc5cncs5)cc4NC(=O)c4cc(=O)c5ccccc5o4)cc3)Cc3ccc4c(cnn4C)c3)ccc21 [Compound 266] | > 1000 |
| Cn1ncc2cc(CN(CCc3ccc(NC(=O)c4ccc(C(=O)O)cc4NC(=O)c4cc(=O)c5ccccc5o4)cc3)Cc3ccc4c(cnn4C)c3)ccc21 [Compound 267] | > 1000 |
| Cn1ncc2cc(CN(CCc3ccc(NC(=O)c4ccc(C(=O)OCc5cccnc5)cc4NC(=O)c4cc(=O)c5ccccc5o4)cc3)Cc3ccc4c(cnn4C)c3)ccc21 [Compound 268] | > 1000 |
| COC(=O)c1ccc(C(=O)Nc2ccc(CCN(C)Cc3ccc4c(cnn4C)c3)cc2)c(NC(=O)c2cc(=O)c3ccccc3o2)c1 [Compound 270] | > 1000 |
| CN(CCc1ccc(NC(=O)c2ccc(C(=O)O)cc2NC(=O)c2cc(=O)c3ccccc3o2)cc1)Cc1ccc2c(cnn2C)c1 [Compound 271] | > 1000 |

Other lines, results leading:

| IC50 [nM] | Structure (SMILES) |
| --- | --- |
| 100 to 250 | COc1cncc(CN(CCc2ccc(NC(=O)c3cc(OC)c(OC)cc3NC(=O)c3cc(=O)c4ccccc4o3)cc2)Cc2ccc3c(c2)nnn3C)c1 [Compound 220] |
| 250 to 500 | COc1cc(NC(=O)c2cc(=O)c3ccccc3o2)c(C(=O)Nc2ccc(CCN(Cc3cccnc3)Cc3ccc4c(c3)nnn4C)cc2)cc1OC [Compound 221] |
| 100 to 250 | COc1cncc(CN(CCc2ccc(NC(=O)c3cc(OC)c(OC)cc3NC(=O)c3cc(=O)c4ccc(C)cc4o3)cc2)Cc2ccc3c(cnn3C)c2)c1 [Compound 222] |
| 100 to 250 | COc1cc(NC(=O)c2cc(=O)c3ccccc3o2)c(C(=O)Nc2ccc(CCN(Cc3cncc(O)c3)Cc3ccc4c(cnn4C)c3)cc2)cc1OC [Compound 223] |
| > 1000 | COc1cc(NC(=O)c2cc(=O)c3ccccc3o2)c(C(=O)Nc2ccc(CCN(Cc3ccc(N)nc3)Cc3ccc4c(cnn4C)c3)cc2)cc1OC [Compound 224] |
| > 1000 | COc1cc(NC(=O)c2cc(=O)c3ccccc3o2)c(C(=O)Nc2ccc(CCN(Cc3ccc4c(cnn4C)c3)Cc3ccc[n+]([O-])c3)cc2)cc1OC [Compound 225] |
| > 1000 | COc1cc(NC(=O)c2cc(=O)c3ccccc3o2)c(C(=O)Nc2ccc(CCN(Cc3ccc4c(cnn4C)c3)Cc3cccnc3N)cc2)cc1OC [Compound 226] |
| 500 to 1000 | COc1cc(NC(=O)c2cc(=O)c3ccccc3o2)c(C(=O)Nc2ccc(CCN(Cc3cncc(Cl)c3)Cc3ccc4c(cnn4C)c3)cc2)cc1OC [Compound 227] |
| > 1000 | COc1cc(NC(=O)c2cc(=O)c3ccccc3o2)c(C(=O)Nc2ccc(CCN(Cc3ccc4c(cnn4C)c3)Cc3cnccc3O)cc2)cc1OC [Compound 228] |
| 100 to 250 | COc1cncc(CN(CCc2ccc(NC(=O)c3cc(OC)c(OC)cc3NC(=O)c3cc(=O)c4ccccc4o3)cc2)Cc2cnc(-c3ccccc3F)nc2)c1 [Compound 230] |
| > 1000 | COc1cc(NC(=O)c2cc(=O)c3ccccc3o2)c(C(=O)Nc2ccc(CCN(Cc3ccc4c(cnn4C)c3)C(=O)OC(C)(C)C)cc2)cc1OC [Compound 231] |
| < 100 | COc1cc(NC(=O)c2cc(=O)c3ccccc3o2)c(C(=O)NCc2ccc(CN(Cc3ccc4c(cnn4C)c3)Cc3ccccc3-n3ccnc3)cc2)cc1OC [Compound 232] |
| 100 to 250 | COc1cc(NC(=O)c2cc(=O)c3ccccc3o2)c(C(=O)NCc2ccc(CN(Cc3cccc(-n4ccnc4)c3)Cc3ccc4c(cnn4C)c3)cc2)cc1OC [Compound 233] |
| 100 to 250 | COc1cc(NC(=O)c2cc(=O)c3ccccc3o2)c(C(=O)NCc2ccc(CN(Cc3cccnc3)Cc3ccc4c(cnn4C)c3)cc2)cc1OC [Compound 234] |
| 100 to 250 | COc1cncc(CN(Cc2ccc(CNC(=O)c3cc(OC)c(OC)cc3NC(=O)c3cc(=O)c4ccccc4o3)cc2)Cc2ccc3c(cnn3C)c2)c1 [Compound 235] |
| > 1000 | COc1cc(NC(=O)c2cc(=O)c3ccccc3o2)c(C(=O)NCc2ccc(CN(Cc3cccc(-c4cncs4)c3)Cc3ccc4c(cnn4C)c3)cc2)cc1OC [Compound 236] |

| IC50 [nM] | Structure (SMILES) |
| --- | --- |
| 100 to 250 | COc1cc(NC(=O)c2cc(=O)c3ccccc3o2)c(C(=O)NCc2ccc(CN(Cc3ccc(-n4ccnc4)cc3)Cc3ccc4c(cnn4C)c3)cc2)cc1OC [Compound 237] |
| > 1000 | COc1cc(NC(=O)c2cc(=O)c3ccccc3o2)c(C(=O)NCc2ccc(CN(Cc3ccc(-c4cncs4)cc3)Cc3ccc4c(cnn4C)c3)cc2)cc1OC [Compound 238] |
| > 1000 | COc1cc(NC(=O)c2cc(=O)c3ccccc3o2)c(C(=O)Nc2ccc(CCN(Cc3cncc(OCC(C)C)c3)Cc3ccc4c(cnn4C)c3)cc2)cc1OC [Compound 239] |
| 250 to 500 | COc1cc(NC(=O)c2cc(=O)c3ccccc3o2)c(C(=O)Nc2ccc(CCN(Cc3cncc(OCCN4CCOCC4)c3)Cc3ccc4c(cnn4C)c3)cc2)cc1OC [Compound 240] |
| > 1000 | COc1cc(NC(=O)c2cc(=O)c3ccccc3o2)c(C(=O)Nc2ccc(CCN(Cc3ccc(-n4ccnc4C)cc3)Cc3ccc4c(cnn4C)c3)cc2)cc1OC [Compound 241] |
| > 1000 | COc1cc(NC(=O)c2cc(=O)c3ccccc3o2)c(C(=O)Nc2ccc(CCN(Cc3cncc(OCCN(C)C)c3)Cc3ccc4c(cnn4C)c3)cc2)cc1OC [Compound 244] |
| > 1000 | COc1cc(NC(=O)c2cc(=O)c3ccccc3o2)c(C(=O)Nc2ccc(CCN(Cc3cncc(OCCN)c3)Cc3ccc4c(cnn4C)c3)cc2)cc1OC [Compound 246] |
| 100 to 250 | COc1cc(NC(=O)c2cc(=O)c3ccccc3o2)c(C(=O)Nc2ccc(CCN(Cc3cncc(O)c3)Cc3ccc4c(c3)c(C)nn4C)cc2)cc1OC [Compound 247] |
| 250 to 500 | CCn1ncc2cc(CN(CCc3ccc(NC(=O)c4cc(OC)c(OC)cc4NC(=O)c4cc(=O)c5ccccc5o4)cc3)Cc3cccnc3)ccc21 [Compound 248] |
| > 1000 | COc1cc(NC(=O)c2cc(=O)c3ccccc3o2)c(C(=O)Nc2ccc(CCN(Cc3cccc(-n4ccnc4C)c3)Cc3ccc4c(cnn4C)c3)cc2)cc1OC [Compound 249] |
| > 1000 | COc1cc(NC(=O)c2cc(=O)c3cc(C)ccc3o2)c(C(=O)Nc2ccc(CCN(Cc3ccc4c(cnn4C)c3)Cc3ccc4c(c3)nnn4C)cc2)cc1OC [Compound 251] |
| 250 to 500 | COc1cncc(CN(CCc2ccc(NC(=O)c3cc(OC)c(OC)cc3NC(=O)c3cc(=O)c4ccccc4o3)cc2)Cc2ccc3c(cnn3C(C)=O)c2)c1 [Compound 252] |
| 500 to 1000 | COc1cc(NC(=O)c2cc(=O)c3ccccc3o2)c(C(=O)Nc2ccc(CCN(Cc3cncc(C(C)C)c3)Cc3ccc4c(cnn4C)c3)cc2)cc1OC [Compound 253] |
| > 1000 | COc1cc(NC(=O)c2cc(=O)c3ccccc3o2)c(C(=O)Nc2ccc(CCN(Cc3cncc(-c4ccccc4)c3)Cc3ccc4c(cnn4C)c3)cc2)cc1OC [Compound 254] |
| > 1000 | COc1cc(NC(=O)c2cc(=O)c3cc(C)ccc3o2)c(C(=O)Nc2ccc(CCN(Cc3cncc(-c4ccccc4)c3)Cc3ccc4c(cnn4C)c3)cc2)cc1OC [Compound 255] |
| > 1000 | COc1cncc(CN(CCc2ccc(NC(=O)c3ccc(C(=O)O)cc3NC(=O)c3cc(=O)c4ccccc4o3)cc2)Cc2ccc3c(cnn3C)c2)c1 [Compound 259] |
